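Assay format: 96-well plates, 48-hour exposure. GI50: concentration for 50% inhibition of growth. At the TGI there is no net growth.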
Assays:
Assay in all cases: growth of human tumour cells (NCI), 48 h
HOP-92 NSCLC = tested on: HOP-92 NSCLC
SNB-78 CNS = tested on: SNB-78 CNS
SF-295 CNS = tested on: SF-295 CNS
DLD-1 colon = tested on: DLD-1 colon
MALME-3M melanoma = tested on: MALME-3M melanoma
K-562 leukemia = tested on: K-562 leukemia
HOP-18 NSCLC = tested on: HOP-18 NSCLC
NCI/ADR-RES ovarian = tested on: NCI/ADR-RES ovarian
T-47D breast = tested on: T-47D breast
PC-3 prostate = tested on: PC-3 prostate

SMILES	GI50 (HOP-92 NSCLC)	TGI (HOP-92 NSCLC)	GI50 (SNB-78 CNS)	TGI (SNB-78 CNS)	TGI (SF-295 CNS)	GI50 (DLD-1 colon)	TGI (DLD-1 colon)	GI50 (MALME-3M melanoma)	TGI (MALME-3M melanoma)	TGI (K-562 leukemia)	TGI (HOP-18 NSCLC)	GI50 (SF-295 CNS)	GI50 (K-562 leukemia)	GI50 (HOP-18 NSCLC)	TGI (NCI/ADR-RES ovarian)	TGI (T-47D breast)	TGI (PC-3 prostate)	GI50 (NCI/ADR-RES ovarian)	GI50 (T-47D breast)	GI50 (PC-3 prostate)
CCc1ccc(/C=C\c2cc(OC)c(OC)c(OC)c2)cc1	0.0222 µM	0.233 µM	0.0224 µM	> 100 µM	0.0171 µM	0.0358 µM	27.8 µM	0.0447 µM	37.4 µM											
O=C(O)CNS(=O)(=O)c1ccc(NCc2ccccc2)cc1		> 100 µM		> 100 µM			> 100 µM		> 100 µM	> 100 µM	> 100 µM									
O=C(c1ccccc1)c1nnc(C(=O)c2ccccc2)nn1		> 344 µM		> 344 µM	> 344 µM		> 344 µM		> 344 µM	> 344 µM	> 344 µM									
CC(=O)CNC(=O)OC(C)(C)C		> 100 µM		> 100 µM	> 100 µM		> 100 µM		> 100 µM	> 100 µM										
Brc1cccc(C=NC23CC4CC(CC(C4)C2)C3)c1		> 100 µM		> 100 µM	> 100 µM		> 100 µM		> 100 µM	> 100 µM	> 100 µM									
O=C1NC2OC(CO)C(O)C(O1)C2O (centres undefined)		> 100 µM		> 100 µM	> 100 µM		> 100 µM		> 100 µM	> 100 µM	> 100 µM									
[Cl-].[Dy+3].[O-]/N=C(\c1ccccc1)c1ccccn1.[O-]/N=C(\c1ccccc1)c1ccccn1.[O-]/N=C(\c1ccccc1)c1ccccn1	41.4 µM	> 100 µM			68.8 µM	35.9 µM	> 100 µM	34.4 µM	> 100 µM	> 100 µM		20.9 µM	35.9 µM							
COc1ccc(C2=CC3CCC2C3)cc1 (centres undefined)		> 100 µM		> 100 µM	> 100 µM		> 100 µM		> 100 µM	> 100 µM	> 100 µM									
O=c1c2cc([N+](=O)[O-])ccc2sc2ccsc12		> 100 µM		> 100 µM	> 100 µM		> 100 µM		> 100 µM	> 100 µM	> 100 µM									
OCC(O)CC[CH2][Sn]([Br])([c]1ccccc1)[c]1ccccc1 (centres undefined)	> 100 µM	> 100 µM	> 100 µM	> 100 µM	> 100 µM	> 100 µM	> 100 µM			> 100 µM	> 100 µM	> 100 µM	> 100 µM	> 100 µM						
COC(=O)/C=C/c1cc(OC)c(OC)c(OC)c1		> 100 µM			> 100 µM		> 100 µM		> 100 µM		> 100 µM									
O=C1/C(=C/c2ccccc2)CNC/C1=C\c1ccccc1		22.1 µM		41.8 µM	5.25 µM		1.08 µM		9.3 µM	> 23.8 µM	22.9 µM									
N#Cc1cc([N+](=O)[O-])ccc1NC(=O)C(=O)Nc1n[nH]c(N)n1		> 100 µM		> 100 µM			> 100 µM		> 100 µM	> 100 µM										
COc1ccc(/C=C/c2nccc3ccccc23)cc1OC		> 10 µM			> 10 µM				> 10 µM	> 10 µM					> 10 µM	> 10 µM	> 10 µM			
C=CCOCCCCC(C(C)=O)C(=O)OC (centres undefined)		> 100 µM		> 100 µM	> 100 µM		> 100 µM		> 100 µM	> 100 µM	> 100 µM									
CC(C)(C)C1C=C(Sc2ccccc2)C(=O)O1 (centres undefined)		75.2 µM		> 100 µM	> 100 µM		> 100 µM		> 100 µM	> 100 µM	> 100 µM									
O=C1CCC2(c3ccc(F)cc3)Nc3cc(Cl)ccc3N12 (centres undefined)				> 100 µM	> 100 µM		> 100 µM		> 100 µM	> 100 µM	> 100 µM									
CC(C)C(=O)NC(=S)Nc1ccc([N+](=O)[O-])cc1C#N		> 100 µM		> 100 µM	> 100 µM		> 100 µM		> 100 µM	> 100 µM	> 100 µM									
CCOC(=O)C1=C(OC(OCC)C(CC)[Se]c2ccccc2)CCCC1 (centres undefined)		46 µM		> 100 µM	55.6 µM		35.5 µM		97.7 µM	> 100 µM	86.4 µM									
CCOc1cc2c(Cl)ncnc2c(OCC)c1OCC	3.67 µM	14.2 µM			29.2 µM			9.5 µM	27.5 µM	12.5 µM		9.25 µM	2.72 µM		> 64.3 µM	22.8 µM	11.4 µM	25.6 µM	6.11 µM	3.2 µM
Cc1cc2c(cc1C)[n+](=O)c(C(=O)C/C(=N/NC(=O)CC#N)C(=O)Nc1ccccc1C(F)(F)F)c(C)n2[O-]					> 100 µM				> 100 µM	> 100 µM	> 100 µM									
